Each block holds one compound with its values, some of them ahead of it.
Assays:
[1] = Antiproliferative activity against […] assessed as reduction in cell growth incubated for 48 hrs by MTT assay; assay type: functional, cell-based; details: RN 22, 48 h
[2] = target: T1, Histone-lysine N-methyltransferase NSD2 (Homo sapiens, UniProt O96028); assay: Inhibition of NSD2 SET domain (unknown origin) extracted from Escherichia coli BL21
T1 sequence (O96028 whole entry): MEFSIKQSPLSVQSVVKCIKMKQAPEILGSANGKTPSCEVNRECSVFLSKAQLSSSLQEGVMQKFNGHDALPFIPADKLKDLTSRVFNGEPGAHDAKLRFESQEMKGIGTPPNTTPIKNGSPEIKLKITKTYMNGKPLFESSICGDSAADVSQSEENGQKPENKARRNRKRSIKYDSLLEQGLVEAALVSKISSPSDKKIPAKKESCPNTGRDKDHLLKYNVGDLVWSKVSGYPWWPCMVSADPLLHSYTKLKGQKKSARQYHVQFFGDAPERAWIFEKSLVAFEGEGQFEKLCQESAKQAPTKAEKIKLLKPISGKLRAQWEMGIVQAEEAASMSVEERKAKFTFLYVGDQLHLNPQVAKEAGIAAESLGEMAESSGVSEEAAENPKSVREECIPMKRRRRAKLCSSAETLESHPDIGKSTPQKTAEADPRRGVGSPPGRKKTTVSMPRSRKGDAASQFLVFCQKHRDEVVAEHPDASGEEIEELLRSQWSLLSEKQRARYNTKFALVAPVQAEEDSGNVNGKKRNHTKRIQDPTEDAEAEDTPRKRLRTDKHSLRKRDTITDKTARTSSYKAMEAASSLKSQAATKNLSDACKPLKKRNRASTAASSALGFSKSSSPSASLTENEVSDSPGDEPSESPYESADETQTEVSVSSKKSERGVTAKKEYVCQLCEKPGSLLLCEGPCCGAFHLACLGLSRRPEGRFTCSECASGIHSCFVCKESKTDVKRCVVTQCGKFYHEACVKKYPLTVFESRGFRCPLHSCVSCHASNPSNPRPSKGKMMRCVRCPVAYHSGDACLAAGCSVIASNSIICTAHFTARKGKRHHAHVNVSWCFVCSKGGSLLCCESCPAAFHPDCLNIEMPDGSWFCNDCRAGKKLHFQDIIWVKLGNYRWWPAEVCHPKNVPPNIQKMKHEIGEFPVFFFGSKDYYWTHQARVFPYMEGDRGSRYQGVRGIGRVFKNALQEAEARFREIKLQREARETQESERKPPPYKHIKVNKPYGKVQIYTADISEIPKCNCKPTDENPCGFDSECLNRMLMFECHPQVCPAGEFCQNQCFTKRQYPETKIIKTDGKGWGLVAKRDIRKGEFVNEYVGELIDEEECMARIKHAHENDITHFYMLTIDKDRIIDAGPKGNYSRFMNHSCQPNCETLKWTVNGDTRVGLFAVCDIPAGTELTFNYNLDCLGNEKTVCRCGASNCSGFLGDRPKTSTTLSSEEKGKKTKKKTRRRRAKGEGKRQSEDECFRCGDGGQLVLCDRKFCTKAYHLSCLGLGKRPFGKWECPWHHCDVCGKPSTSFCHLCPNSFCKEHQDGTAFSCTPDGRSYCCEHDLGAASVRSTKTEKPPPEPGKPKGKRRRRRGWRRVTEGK

[3] = target: T1, Histone-lysine N-methyltransferase NSD2; assay: Inhibition of MMSET (953 to 1240 residues) (unknown origin) by Alpha Screen assay
KOPN-8 = assay: Growth inhibition of human KOPN-8 cells; assay type: functional
MOLM-13 = assay: Growth inhibition of human MOLM-13 cells; assay type: functional
MV4-11 = assay: Growth inhibition of human MV4-11 cells after 7 days by WST-8 assay; assay type: functional; details: MV4-11, 168 h, time 7 day
[4] = target: Protein cereblon/Histone-lysine N-methyltransferase NSD2 (Homo sapiens, UniProt O96028+Q96SW2); assay: PROTAC activity at CRBN/NSD2 in human VCaP cells assessed as induction of NSD2 degradation at 2 uM incubated for 24 hrs by immunoblot analysis; assay type: cell-based
EOL1 = assay: Antiproliferative activity against human EOL1 cells assessed as cell growth inhibition; assay type: functional, cell-based
[5] = target: von Hippel-Lindau disease tumor suppressor/Histone-lysine N-methyltransferase NSD3 (Homo sapiens, UniProt Q9BZ95+P40337); assay: PROTAC activity at VHL/NSD3 […] domain in human MOLM-13 cells assessed as […] measured after 48 hrs by immunoblotting analysis; assay type: cell-based
[6] = target: T1, Histone-lysine N-methyltransferase NSD2; assay: Binding affinity to NSD2 (unknown origin) assessed as dissociation constant by SPR analysis
[7] = Oral bioavailability in CD-1 mouse by LC-MS/MS analysis; assay type: ADME, organism-based; details: in vivo
[8] = Oral bioavailability in Sprague-Dawley rat by LC-MS/MS analysis; assay type: ADME, organism-based; details: in vivo

Chain of Protein cereblon/Histone-lysine N-methyltransferase NSD2 (Q96SW2 whole entry, one chain of several): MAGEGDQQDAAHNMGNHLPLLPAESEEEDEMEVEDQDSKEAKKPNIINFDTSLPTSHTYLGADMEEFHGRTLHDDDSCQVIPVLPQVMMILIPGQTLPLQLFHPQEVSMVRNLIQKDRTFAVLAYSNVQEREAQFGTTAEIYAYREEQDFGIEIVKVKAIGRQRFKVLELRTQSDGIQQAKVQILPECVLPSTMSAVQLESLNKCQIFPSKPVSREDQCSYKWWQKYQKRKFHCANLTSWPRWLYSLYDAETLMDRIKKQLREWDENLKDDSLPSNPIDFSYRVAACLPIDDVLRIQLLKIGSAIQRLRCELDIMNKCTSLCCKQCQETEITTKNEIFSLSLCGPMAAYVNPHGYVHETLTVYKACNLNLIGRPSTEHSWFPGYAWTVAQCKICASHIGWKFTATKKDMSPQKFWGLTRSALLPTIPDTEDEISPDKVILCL
Chain of von Hippel-Lindau disease tumor suppressor/Histone-lysine N-methyltransferase NSD3 (Q9BZ95 whole entry): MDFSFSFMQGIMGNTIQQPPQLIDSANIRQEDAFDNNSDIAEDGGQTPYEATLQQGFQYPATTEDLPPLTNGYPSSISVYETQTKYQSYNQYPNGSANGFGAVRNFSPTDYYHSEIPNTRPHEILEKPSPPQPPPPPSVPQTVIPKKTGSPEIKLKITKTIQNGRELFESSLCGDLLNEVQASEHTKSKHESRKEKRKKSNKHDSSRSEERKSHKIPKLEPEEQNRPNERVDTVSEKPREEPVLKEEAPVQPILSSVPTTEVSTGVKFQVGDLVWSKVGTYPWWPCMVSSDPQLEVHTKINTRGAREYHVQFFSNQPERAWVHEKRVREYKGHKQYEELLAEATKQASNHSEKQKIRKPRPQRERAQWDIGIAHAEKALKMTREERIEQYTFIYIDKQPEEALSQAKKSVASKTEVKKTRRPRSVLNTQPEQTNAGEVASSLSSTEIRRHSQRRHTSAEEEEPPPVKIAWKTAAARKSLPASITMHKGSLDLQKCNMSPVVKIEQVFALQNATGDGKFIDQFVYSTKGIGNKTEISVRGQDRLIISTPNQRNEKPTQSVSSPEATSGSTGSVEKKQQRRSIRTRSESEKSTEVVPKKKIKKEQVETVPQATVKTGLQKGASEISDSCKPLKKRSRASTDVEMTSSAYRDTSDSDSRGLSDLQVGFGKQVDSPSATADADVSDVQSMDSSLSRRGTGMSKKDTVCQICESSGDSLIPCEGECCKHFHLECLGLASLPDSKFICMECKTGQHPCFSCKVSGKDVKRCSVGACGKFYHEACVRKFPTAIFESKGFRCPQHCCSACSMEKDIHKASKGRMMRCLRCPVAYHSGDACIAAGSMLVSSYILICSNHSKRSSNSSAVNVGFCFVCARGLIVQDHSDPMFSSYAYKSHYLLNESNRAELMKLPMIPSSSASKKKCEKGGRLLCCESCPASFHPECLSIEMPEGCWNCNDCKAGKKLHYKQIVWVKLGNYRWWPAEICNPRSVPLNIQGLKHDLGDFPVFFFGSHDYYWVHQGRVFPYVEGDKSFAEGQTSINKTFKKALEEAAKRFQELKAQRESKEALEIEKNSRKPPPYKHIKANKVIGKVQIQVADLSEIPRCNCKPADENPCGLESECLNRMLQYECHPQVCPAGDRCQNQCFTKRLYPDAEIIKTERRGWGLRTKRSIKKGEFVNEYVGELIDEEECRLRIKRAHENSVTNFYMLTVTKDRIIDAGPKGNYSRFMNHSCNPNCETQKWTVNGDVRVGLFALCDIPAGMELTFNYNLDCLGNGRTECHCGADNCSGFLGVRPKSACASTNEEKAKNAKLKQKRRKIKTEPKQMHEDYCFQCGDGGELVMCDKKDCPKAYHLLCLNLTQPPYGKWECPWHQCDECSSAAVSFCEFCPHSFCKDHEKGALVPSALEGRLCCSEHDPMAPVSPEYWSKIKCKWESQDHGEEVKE
Chain of von Hippel-Lindau disease tumor suppressor/Histone-lysine N-methyltransferase NSD3 (P40337 whole entry): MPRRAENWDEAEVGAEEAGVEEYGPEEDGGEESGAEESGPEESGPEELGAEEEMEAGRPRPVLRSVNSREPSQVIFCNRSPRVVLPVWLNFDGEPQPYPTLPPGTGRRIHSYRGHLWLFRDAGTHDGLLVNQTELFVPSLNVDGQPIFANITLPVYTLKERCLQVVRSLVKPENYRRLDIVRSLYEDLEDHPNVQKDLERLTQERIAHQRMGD

SMILES: Cc1cc(CN)cc(C)c1-c1ncn(C)c1-c1ccnc2cc(F)ccc12
IC50 [1]: 13000 nM

IC50 [2]: 132 nM
SMILES: O=C1O[C@@H](C(=O)N2CCN(Cc3nc4sc5c(c4c(=O)[nH]3)CCCC5)CC2)Cc2ccccc21

IC50 [3]: 7 nM
SMILES: CC(=O)N(C)C1CCN(c2cc(F)cc(NC(=O)c3cc4c(F)ccc(C)c4[nH]3)c2)C1 (centres undefined)

IC50 [3]: 10 nM
SMILES: Cc1ccc(F)c2cc(C(=O)Nc3cccc(N4CCC(N(C)C)CC4)c3)[nH]c12

GI50 (MOLM-13): 5000 nM
GI50 (MV4-11): 5000 nM
SMILES: NC(=S)c1cccc(-c2cn(C3CCN(S(=O)(=O)C(F)(F)F)CC3)c3cc(CNC(=O)C4CNC4)ccc23)c1
GI50 (KOPN-8): 5000 nM

IC50 [3]: 600 nM
SMILES: Cc1cccnc1C(NC(=O)c1cc2c(F)ccc(C)c2[nH]1)C1CC1 (centres undefined)

GI50 (MOLM-13): 1800 nM
GI50 (MV4-11): 1800 nM
SMILES: CN1CC(C(=O)NCc2ccc3c(-c4cccc(C(N)=S)c4)cn(C4CCN(S(=O)(=O)C(F)(F)F)CC4)c3c2)C1
GI50 (KOPN-8): 1800 nM

IC50 [3]: 3080 nM
SMILES: Cc1cccnc1C(NC(=O)c1cc2cccc(C)c2[nH]1)C1CC1 (centres undefined)

DC50 [4]: 5200 nM
SMILES: O=C(CNc1cccc2c1C(=O)N(C1CCC(=O)NC1=O)C2=O)NCCCOc1ccc(NC(=O)c2ccc(CN(C(=O)c3ccc4c(c3)OCC(=O)N4)C3CC3)cc2)nc1 (centres undefined)

DC50 [5]: 4900 nM
SMILES: Cc1cc(CNCCCC(=O)NCCCCCCCCC(=O)N[C@H](C(=O)N2C[C@H](O)C[C@H]2C(=O)N[C@@H](C)c2ccc(-c3scnc3C)cc2)C(C)(C)C)cc(C)c1-c1ncn(C)c1-c1ccnc2cc(F)ccc12
IC50 (EOL1): 2300 nM

Kd [6]: 24 nM
DC50 [4]: 350 nM
SMILES: NCCCCCCNC(=O)c1ccc(NC(=O)c2ccc(CN(C(=O)c3ccc4c(c3)OCC(=O)N4)C3CC3)cc2)cc1

IC50 [3]: 4240 nM
SMILES: Cc1cccc2cc(C(=O)Nc3ccccc3)[nH]c12

IC50 [3]: 166000 nM
SMILES: Cc1cccc2cc(C(=O)NC3CCC(N)CC3)[nH]c12 (centres undefined)

IC50 [3]: 1800 nM
SMILES: CCC(C)N[C@@H](CC[C@H](N)C(=O)O)C[C@H]1O[C@@H](n2cnc3c(N)ncnc32)[C@H](O)[C@@H]1O (some centres undefined)

IC50 [3]: 18 nM
bioavailability [7]: > 100%
bioavailability [8]: 97%
SMILES: CC(=O)N1CCN([C@H]2CCC[C@@H](NC(=O)c3cc4c(F)ccc(C)c4[nH]3)C2)CC1 [EZM-0414]
